According to article PMC9729826, “Hypoaminoacidemia underpins glucagon-mediated energy expenditure and weight loss” (Cell Reports Medicine, 2022):
Starred links: 1 amine or outer side, 2 acyl side, 3 side chain; linkers in the order of their positions; H or OH if unused. Non-standard residues stand in square brackets, D forms with d. Residues, ends and D or L forms follow the SMILES beside them. Groups on a side chain read outwards from the residue. *: point of attachment. C18 diacid = O=C(O)CCCCCCCCCCCCCCCCC(=O)*; γGlu = O=C(O)[C@H](CCC(=O)[*:2])N[*:1]; Aib = CC(C)(N)C(=O)O

Columns and labels:
[1] = Pharmacokinetic profile of G108 in rats (plasma radioimmunoassay); conditions: rat, in vivo, sc, male Wistar rats, single 0.5 mg subcutaneous dose, sampled 1.5-72 h, n = 4, read-out: time at which peak plasma concentrations were achieved
Procedure: 10-week-old male Wistar rats (N = 4) were administered with 0.5 mg G108 via 100 μL subcutaneous injection. Tail venesection was performed to collect 100 μL blood samples prior to injection and at 1.5, 3, 6, 24, 48 and 72 h after injection. Blood samples were immediately frozen on ice, centrifuged at 8000 × g for 10 min at 4°C, and the plasma supernatant collected. Samples were stored at −20°C.
An in-house radioimmunoassay was used to determine peptide concentrations in the rat plasma. Antiserum (RA553/3) was produced in rabbits against the purified glucagon (1–16) fragment which specifically cross-reacted with the N-terminal glucagon-like sequence of G108. Direct iodination was used to produce Iodine-125 glucagon which was purified by reverse phase high pressure liquid chromatography. The assay was performed in a total volume of 700 μL of 0.06 M phosphate EDTA buffer containing 0.3% BSA. All samples were assayed in duplicate and the standard curve was set using 5 pmol/mL G108 in assay buffer. The assay was incubated for 3 nights at 4°C prior to separation via charcoal into free and antibody-bound label. A γ-counter was used to count the pellet and supernatant and the ratio of free to bound label was calculated. The plasma peptide concentration was calculated using two phase exponential decay with respect to the relevant standard curve.

lean C57BL/6 mice = assay: Chronic low-dose (5 nmol/kg) G108 study in lean mice; format: in vivo, mouse; conditions: 5 nmol/kg s.c. daily
Procedure: For the low-dose G108 (5 nmol/kg) study, C57BL/6 mice matched for weight and age (14-week-old, N = 14) were single housed and split into two treatment groups (N = 7/group). All mice were subcutaneously administered with the allocated treatment daily at 9 am for 21 days. Mice were administered with vehicle control (HPLC water) or 5 nmol/kg G108 (diluted in sterile HPLC water). All mice had ad libitum access to a standard protein diet containing 20 kcal% protein (diet D11112201) (Table S2). Food intake and body weight were measured daily prior to treatment each day. EchoMRI analysis was carried out at baseline and days 7, 14 and 21. Tail venesection was carried out on day 7 of study, pre- and 4 h post treatment dose. Blood samples were immediately transferred on ice, centrifuged at 2800 × g for 10 min prior to plasma total amino acid analysis. Forelimb grip strength testing was performed at baseline, day 14 and day 21. On day 21, following a 4 h fast, mice were culled, and the following muscle groups dissected and weighed: quadriceps, gastrocnemius, soleus, tibialis anterior, extensor digitorum longus.
Food intake was measured daily using a dedicated weighing scale and topped up accordingly. Body weight was recorded at 9 am daily or every 48 h using the same weighing scale. Body composition was measured using an EchoMRI analyser at various timepoints during chronic studies. Body composition measurements were taken on the same time of day to reduce intra-animal variability. Animals were placed in a transparent cylindrical Perspex tube and both ends secured with Perspex clips. The tubes containing the animal was then carefully placed into the MRI machine (EchoMRI −100H analyser, EchoMRI). Each scan lasted approximately 90 s where lean mass and fat mass were recorded in grams. Following the scan, the mice were removed from the Perspex tube and returned to their respective cages.
A grip strength meter (Bioseb, France) was used to measure grip strength. […] The maximum force, measured in g was recorded. Four consecutive measurements were made with a 1 min rest interval. An average of measurements was taken for each timepoint prior to subsequent analysis.
(§1) Plasma total amino acids were measured using fluorometric-based ELISA kits as described (MAK002, Sigma-Aldrich, Ab65347, Abcam). Plasma FGF21 was measured using a fluorescent based ELISA kit (ab229382, Abcam). Plasma triglyceride, cholesterol and leptin were measured using ELISA kits (ab65336, ab65390, ab199082, Abcam). Individual amino acids were measured using Gas Chromatography/Mass Spectrometry (WellChild laboratory, Evelina Children’s Hospital, St Thomas’s Hospital, London).

Gcgr^Δliver mice = assay: Chronic study in hepatic-specific glucagon receptor knockout mice; format: in vivo, mouse; conditions: 5 nmol/kg s.c. daily, 14 days, n = 7-8/group
Procedure: Age-matched (12-week-old) Gcgr^flox/flox:Alb-Cre + (Gcgr^Δliver) and Gcgr^flox/flox:Alb-Cre- (control) mice were subcutaneously administered daily with either 5 nmol/kg G108 or vehicle control (HPLC water) for 14 days (N = 7–8/group). All mice were single-housed and had ad libitum access to water and a standard (20 kcal%) protein diet (diet D11112201, Table S2). Food intake and body weight were measured daily prior to administration of peptide each day. EchoMRI analysis was carried out at baseline and day 14. Tail venesection was carried out 4-h post-dose on day 14. Blood samples were immediately transferred on ice, centrifuged at 2800 × g for 10 min prior to plasma total amino acid analysis.
Food intake was measured daily using a dedicated weighing scale and topped up accordingly. Body weight was recorded at 9 am daily or every 48 h using the same weighing scale. Body composition was measured using an EchoMRI analyser at various timepoints during chronic studies. […] Each scan lasted approximately 90 s where lean mass and fat mass were recorded in grams. […]
as §1, with “Individual amino acids were measured using Gas Chromatography/Mass Spectrometry (WellChild laboratory, Evelina Children’s Hospital, St Thomas’s Hospital, London).” left out

[2] = system: diet-induced obese (DIO) C57BL/6 mice; assay: Total amino acid supplementation in G108-treated DIO mice; format: in vivo, mouse; conditions: n = 8/group
Text: Lean 10-week-old C57BL/6 mice (N = 32) were provided ad libitum a 60 kcal% high fat diet (diet D12492, Table S2) ad libitum for 8 weeks. Half of the animals were then provided with a high fat standard protein diet (D08091803, Table S2) or a high fat standard protein diet supplemented with additional total amino acids (SP + TAA diet, Formula 1, Table S3). From each diet group, animals were allocated to receive either 7.5 nmol/kg G108 or vehicle control (N = 8/group). The subsequent four treatment groups were as follows: Vehicle/SP diet, G108/SP diet, Vehicle/SP + TAA diet, G108/SP + TAA diet. Food intake and body weight was recorded every 48 h during the study. Baseline body composition analysis (EchoMRI) was carried out in addition body composition analysis on day 18. […]
To measure energy expenditure, DIO mice were placed into a Comprehensive Laboratory Animal Monitoring System (CLAMS, Columbus instruments, Columbus, US). […] Food intake was also measured electronically without the need to remove food. […] Feed efficiency was calculated as mg body weight change per kJ consumed.
as §1, with “Individual amino acids were measured using Gas Chromatography/Mass Spectrometry (WellChild laboratory, Evelina Children’s Hospital, St Thomas’s Hospital, London).” left out

Structure (SMILES): CC[C@H](C)[C@H](NC(=O)[C@H](Cc1ccccc1)NC(=O)[C@H](CCC(=O)O)NC(=O)[C@H](CCC(N)=O)NC(=O)[C@H](C)NC(=O)[C@H](CCCNC(=N)N)NC(=O)[C@H](CCCCN)NC(=O)[C@H](C)NC(=O)[C@H](CC(=O)O)NC(=O)[C@H](CC(C)C)NC(=O)[C@H](Cc1ccc(O)cc1)NC(=O)[C@H](CCCNC(=N)N)NC(=O)[C@H](CO)NC(=O)[C@H](Cc1ccc(O)cc1)NC(=O)[C@H](CC(=O)O)NC(=O)[C@H](CO)NC(=O)[C@@H](NC(=O)[C@H](Cc1ccccc1)NC(=O)[C@@H](NC(=O)CNC(=O)[C@H](Cc1c[nH]cn1)NC(=O)C(C)(C)NC(=O)[C@@H](N)Cc1c[nH]cn1)[C@@H](C)O)[C@@H](C)O)C(=O)N[C@@H](CCC(=O)O)C(=O)N[C@@H](Cc1c[nH]c2ccccc12)C(=O)N[C@@H](CC(C)C)C(=O)N[C@@H](CC(C)C)C(=O)N[C@@H](CCC(N)=O)C(=O)N[C@@H](CO)C(=O)N[C@@H](Cc1c[nH]cn1)C(=O)N[C@@H](Cc1c[nH]cn1)C(=O)N[C@@H](CCC(N)=O)C(=O)N[C@@H](Cc1c[nH]cn1)C(=O)N[C@@H](Cc1c[nH]cn1)C(=O)N1CCC[C@H]1C(=O)N[C@@H](CO)C(=O)N1CCC[C@H]1C(=O)N1CCC[C@H]1C(=O)N1CCC[C@H]1C(=O)N[C@@H](CCCCNC(=O)[C@H](CC(N)=O)NC(=O)CC[C@H](NC(=O)CCCCCCCCCCCCCCCCC(=O)O)C(=O)O)C(N)=O [Peptide G108] (H-H[Aib]HGTFTSDYSRYLDAKRAQEFIEWLLQSHHQHHPSPPPK([Asn-γGlu-C18 diacid])-NH2; N-terminus and C-terminus assumed)
- Tmax [1]: 24 h
- body composition (lean mass, EchoMRI) (lean C57BL/6 mice; 21 days, n = 7/group): reduced lean mass
- body weight gain compared with vehicle (lean C57BL/6 mice; 21 days, n = 7/group): prevented weight gain
- plasma total amino acids (lean C57BL/6 mice; day 7, n = 7/group): sustained reduction in plasma amino acids
- weight of the quadriceps and gastrocnemius muscles (lean C57BL/6 mice; day 21, n = 7/group): reduced
- forelimb grip strength (lean C57BL/6 mice; days 14 and 21, n = 7/group): reduced
- effects on body weight, lean mass and plasma amino acids in mice lacking the hepatic GCGR (Gcgr^Δliver mice): completely refractory
- body weight on SP diet supplemented with total amino acids (SP + TAA) ([2]; 7.5 nmol/kg daily, 20 days): prevented G108-mediated weight loss independent of food intake
- blood glucose over 4 hours after acute administration ([2]; single 7.5 nmol/kg dose, following a transient increase): reduction in blood glucose that lasted several hours
